In US20070093520A1, “Method of treatment of diarrhea-predominant irritable bowel syndrome in a subject” (priority 2005, published 2007):

System: diarrhea-predominant IBS subjects
Test: 3007 Study: open-label 52-week safety study, adverse events and withdrawals
Settings: Study 3007; for Number of subjects who died / Primary reason for withdrawal: Adverse event and lack of efficacy / Primary reason for withdrawal: Baseline complaint/adverse event / Primary reason for withdrawal: Lack of efficacy: all enrolled

SMILES: Cc1nccn1C[C@H]1CCc2c(c3cccc4c3n2CCC4)C1=O [cilansetron, (R)-(−)-4,5,6,8,9,10-hexahydro-10-[(2-methyl-1H-imidazol-1-yl)methyl]-11H-pyrido-[3,2,1-jk]-carbazol-11-one]
- SAE: Hepatitis NOS (C/C): 1 (<1%) n (%)
- SAE: Hepatobiliary Disorders (C/C): 2 (<1%) n (%)
- SAE: Immune System Disorders (C/C): 0 n (%)
- SAE: Infections and Infestations (C/C): 1 (<1%) n (%)
- SAE: Injury, Poisoning and Procedural Complications (C/C): 2 (<1%) n (%)
- SAE: Irritable Bowel Syndrome Aggravated (C/C): 1 (<1%) n (%)
- SAE: Leiomyoma NOS (C/C): 1 (<1%) n (%)
- SAE: Loss of Consciousness (C/C): 1 (<1%) n (%)
- SAE: Myocardial Infarction (C/C): 1 (<1%) n (%)
- SAE: Neoplasms Benign, Malignant and Unspecified (Incl Cysts and Polyps) (C/C): 3 (1%) n (%)
- SAE: Nervous System Disorders (C/C): 2 (<1%) n (%)
- SAE: Non-Accidental Overdose (C/C): 1 (<1%) n (%)
- SAE: Ovarian Cancer NOS* (C/C): 1 (<1%) n (%)
- SAE: Ovarian Cystadenofibroma* (C/C): 0 n (%)
- SAE: Pregnancy NOS* (C/C): 1 (<1%) n (%)
- SAE: Pregnancy, Puerperium and Perinatal Conditions (C/C): 1 (<1%) n (%)
- SAE: Psychiatric Disorders (C/C): 0 n (%)
- SAE: Psychotic Disorder NOS (C/C): 0 n (%)
- SAE: Renal and Urinary Disorders (C/C): 1 (<1%) n (%)
- SAE: Reproductive System and Breast Disorders (C/C): 2 (<1%) n (%)
- SAE: Respiratory, Thoracic and Mediastinal Disorders (C/C): 0 n (%)
- SAE: Sinusitis Acute NOS (C/C): 0 n (%)
- SAE: Status Epilepticus (C/C): 1 (<1%) n (%)
- SAE: Suicidal Ideation (C/C): 0 n (%)
- SAE: Supraventricular Tachycardia (C/C): 0 n (%)
- SAE: Urinary Tract Infection NOS (C/C): 0 n (%)
- SAE: Uterine Polyp NOS* (C/C): 1 (<1%) n (%)
- SAE: Vaginal Cyst* (C/C): 1 (<1%) n (%)
- TEAEs that led to permanent discontinuation of study medication (C/C): 13%
- Total Number of Subjects with at Least One Serious Adverse Event (C/C): 19 (7%) n (%)
- subjects with at least one TEAE (C/C): 86%
- subjects with at least one treatment-emergent SAE (C/C): 7%
- withdrawal for AE (C/C): 13%
- withdrawal for lack of efficacy (C/C): 17%
- Number of deaths (C/C (N = 257)): 0 n (%)
- Number of subjects who permanently discontinued study medication due to a TEAE (as reported on the AE CRF) (C/C (N = 257)): 33 (13) n (%)
- Number of subjects with at least one AE of special interest (C/C (N = 257)): 186 (72) n (%)
- Number of subjects with at least one SAE (C/C (N = 257)): 19 (7) n (%)
- Number of subjects with at least one TEAE (C/C (N = 257)): 220 (86) n (%)
- Number of subjects with at least one TEAE leading to dose reduction (C/C (N = 257)): 7 (3) n (%)
- Number of subjects with at least one related TEAE (C/C (N = 257)): 151 (59) n (%)
- Number of subjects with at least one severe TEAE (C/C (N = 257)): 50 (19) n (%)
- Number of subjects who died (C/C): 0 n (%)
- Primary reason for withdrawal: Adverse event and lack of efficacy (C/C): 23 (9) n (%)
- Primary reason for withdrawal: Baseline complaint/adverse event (C/C): 10 (4) n (%)
- Primary reason for withdrawal: Lack of efficacy (C/C): 20 (8) n (%)
- Number of deaths (Overall (N = 536)): 0 n (%)
- Number of subjects who permanently discontinued study medication due to a TEAE (as reported on the AE CRF) (Overall (N = 536)): 83 (15) n (%)
- Number of subjects with at least one AE of special interest (Overall (N = 536)): 371 (69) n (%)
- Number of subjects with at least one SAE (Overall (N = 536)): 29 (5) n (%)
- Number of subjects with at least one TEAE (Overall (N = 536)): 437 (82) n (%)
- Number of subjects with at least one TEAE leading to dose reduction (Overall (N = 536)): 11 (2) n (%)
- Number of subjects with at least one related TEAE (Overall (N = 536)): 301 (56) n (%)
- Number of subjects with at least one severe TEAE (Overall (N = 536)): 94 (18) n (%)
- Number of subjects who died (Overall): 0 n (%)
- Primary reason for withdrawal: Adverse event and lack of efficacy (Overall): 57 (10) n (%)
- Primary reason for withdrawal: Baseline complaint/adverse event (Overall): 24 (4) n (%)
- Primary reason for withdrawal: Lack of efficacy (Overall): 45 (8) n (%)
- SAE: Abdominal Pain Upper (P/C): 0 n (%)
- SAE: Adenomyosis* (P/C): 0 n (%)
- SAE: Angina Pectoris (P/C): 0 n (%)
- SAE: Appendicitis (P/C): 0 n (%)
- SAE: Asthma NOS (P/C): 1 (<1%) n (%)
- SAE: Benign Ovarian Tumour* (P/C): 1 (<1%) n (%)
- SAE: Bladder Prolapse (P/C): 1 (<1%) n (%)
- SAE: Bone Neoplasm Malignant (P/C): 0 n (%)
- SAE: Breast Cancer NOS* (P/C): 2 (1%) n (%)
- SAE: Bronchopneumonia NOS (P/C): 1 (<1%) n (%)
- SAE: Calculus Ureteric (P/C): 0 n (%)
- SAE: Cardiac Disorders (P/C): 1 (<1%) n (%)
- SAE: Chest Pain (P/C): 1 (<1%) n (%)
- SAE: Cholelithiasis (P/C): 0 n (%)
- SAE: Colitis Ischaemic (P/C): 1 (<1%) n (%)
- SAE: Depression (P/C): 1 (<1%) n (%)
- SAE: Endometriosis* (P/C): 0 n (%)
- SAE: Fibroma NOS (P/C): 1 (<1%) n (%)
- SAE: Food Allergy (P/C): 1 (<1%) n (%)
- SAE: Gastritis NOS (P/C): 0 n (%)
- SAE: Gastroenteritis NOS (P/C): 0 n (%)
- SAE: Gastrointestinal Disorders (P/C): 1 (<1%) n (%)
- SAE: General Disorders and Administration Site Conditions (P/C): 1 (<1%) n (%)
- SAE: Hallucination NOS (P/C): 1 (<1%) n (%)
- SAE: Hallucination, Auditory (P/C): 1 (<1%) n (%)
- SAE: Heat Exhaustion (P/C): 0 n (%)
- SAE: Hepatitis NOS (P/C): 0 n (%)
